Test results as given in US10307413B2, “Tetrahydro- and dihydro-isoquinoline PRMT5 inhibitors and uses thereof” (Epizyme, Inc., priority 2013, dated 2019).

Experiments:
[1] = test system: Z-138 cell line; assay: Z-138 Proliferation Assay (Cell Titer Glo, 5 days); type: cell-based; conditions: Homo sapiens, 120 h; Z-138 cells, 5 days; read-out: Proliferation EC50
Excerpt: RPMI/Glutamax medium, penicillin-streptomycin, heat inactivated fetal bovine serum were purchased from Life Technologies, Grand Island, N.Y., USA. V-bottom polypropylene 384-well plates were purchased from Greiner Bio-One, Monroe, N.C., USA. Cell culture 384-well white opaque plates were purchased from Perkin Elmer, Waltham, Mass., USA. Cell-Titer Glo® was purchased from Promega Corporation, Madison, Wis., USA. SpectraMax M5 plate reader was purchased from Molecular Devices LLC, Sunnyvale, Calif., USA.
A compound source plate was prepared by performing triplicate nine-point 3-fold serial dilutions in DMSO, beginning at 10 mM (final top concentration of compound in the assay was 20 μM and the DMSO was 0.2%). A 100 nL aliquot from the compound stock plate was added to its respective well in the cell plate. […] After addition of compounds, assay plates were incubated for 5 days at 37° C., 5% CO2, relative humidity >90%.
Cell viability was measured by quantitation of ATP present in the cell cultures, adding […] of Cell Titer Glo® reagent to the cell plates. Luminescence was read in the SpectraMax M5 microplate reader. The concentration of compound inhibiting cell viability by 50% was determined using a 4-parametric fit of the normalized dose response curves.

[2] = test system: symmetric di-methyl arginine in Z-138 cells; assay: Z-138 Methylation Assay (In Cell Western for symmetric di-methyl arginine and DNA content); type: cell-based; conditions: Homo sapiens, read-out: ICW EC50
Excerpt: [formula] [formula] Where top and bottom are the normally allowed to float, but may be fixed at 100 or 0 respectively in a 3-parameter fit. The Hill Coefficient normally allowed to float but may also be fixed at 1 in a 3-parameter fit. Y is the % inhibition and X is the compound concentration.
RPMI/Glutamax medium, penicillin-streptomycin, heat inactivated fetal bovine serum, and D-PBS were purchased from Life Technologies, Grand Island, N.Y., USA. Odyssey blocking buffer, 800CW goat anti-rabbit IgG (H+L) antibody, and Licor Odyssey infrared scanner were purchased from Licor Biosciences, Lincoln, Nebr., USA. Symmetric di-methyl arginine antibody was purchased from EMD Millipore, Billerica, Mass., USA. 16% Paraformaldehyde was purchased from Electron Microscopy Sciences, Hatfield, Pa., USA.
Cell Treatment, in Cell Western (ICW) for Detection of Symmetric Di-Methyl Arginine and DNA Content.
Z-138 cells were seeded in assay medium at a concentration of 50,000 cells per mL to a 384-well cell culture plate with 50 μL per well. Compound (100 nL) from 384 well source plates was added directly to 384 well cell plate. Plates were incubated at 37° C., 5% CO2 for 96 hours. […] Plates were incubated at room temperature for 30 minutes then incubated at 37° C., 5% CO2 for 5 hours. After the incubation, 40 μL per well of 8% paraformaldehyde in PBS (16% paraformaldahyde was diluted to 8% in PBS) was added to each plate and incubated for 30 minutes. […] Next 30 μL per well of Odyssey blocking buffer were added to each plate and incubated 1 hour at room temperature. Blocking buffer was removed and 20 μL per well of primary antibody was added (symmetric di-methyl arginine diluted 1:100 in Odyssey buffer with 0.1% Tween 20 (v/v)) and plates were incubated overnight (16 hours) at 4° C. Plates were washed 5 times with 100 μL per well of wash buffer. Next 20 μL per well of secondary antibody was added (1:200 800CW goat anti-rabbit IgG (H+L) antibody, 1:1000 DRAQ5 (Biostatus limited) in Odyssey buffer with 0.1% Tween 20 (v/v)) and incubated for 1 hour at room temperature. The plates were washed 5 times with 100 μL per well wash buffer then 1 time with 100 μL per well of water. Plates were allowed to dry at room temperature then imaged on the Licor Odyssey machine which measures integrated intensity at 700 nm and 800 nm wavelengths. Both 700 and 800 channels were scanned.
First, the ratio for each well was determined by:
Each plate included fourteen control wells of DMSO only treatment (minimum inhibition) as well as fourteen control wells for maximum inhibition treated with 3 μM of a reference compound (Background wells). The average of the ratio values for each control type was calculated and used to determine the percent inhibition for each test well in the plate. Reference compound was serially diluted three-fold in DMSO for a total of nine test concentrations, beginning at 3 μM. Percent inhibition was determined and IC50 curves were generated using triplicate wells per concentration of compound. Percent Inhibition=100−

Compound	EC50 [1] [nM]	EC50 [2] [nM]
O=C(NCC(O)CN1CCc2ccccc2C1)c1cccc(CC2CCOCC2)c1 (centres unmarked) [Compound 59]	101 to 1000	< 100
O=C(NCC(O)CN1CCc2ccccc2C1)c1cccc(NC2CCCOC2)c1 (centres unmarked) [Compound 60]	1000 to 10000	101 to 1000
O=C(NCC(O)CN1CCc2ccccc2C1)c1ccnc(NC2CCOCC2)n1 (centres unmarked) [Compound 62]	10000 to 50000	101 to 1000
O=C(NCC(O)CN1CCc2ccccc2C1)c1cc(NC2CCOCC2)ncn1 (centres unmarked) [Compound 63]	101 to 1000	< 100
O=C(NCC(O)CN1CCc2ccccc2C1)c1cc(Cl)cc(NC2CCOCC2)c1 (centres unmarked) [Compound 64]	1000 to 10000	101 to 1000
O=C(NCC(O)CN1CCc2ccccc2C1)c1ccc(F)c(NC2CCOCC2)c1 (centres unmarked) [Compound 65]	1000 to 10000	< 100
O=C(NCC(O)CN1CCc2ccccc2C1)c1ccc(NC2CCOCC2)cc1 (centres unmarked) [Compound 66]	1000 to 10000	101 to 1000
COc1ccc(C(=O)NCC(O)CN2CCc3ccccc3C2)cc1NC1CCOCC1 (centres unmarked) [Compound 67]	10000 to 50000	101 to 1000
O=C(NCC(O)CN1CCc2ccccc2C1)c1ccc2ncccc2c1 (centres unmarked) [Compound 68]	1000 to 10000	< 100
COCCCNc1cccc(C(=O)NCC(O)CN2CCc3ccccc3C2)c1 (centres unmarked) [Compound 69]	> 20000	1000 to 10000
CN(CC(O)CN1CCc2ccccc2C1)C(=O)c1cccc(NC2CCOCC2)c1 (centres unmarked) [Compound 71]	1000 to 10000	101 to 1000
O=C(NCC(O)CN1CCc2ccccc2C1)c1cccc(NC2CCOCC2)n1 (centres unmarked) [Compound 73]	1000 to 10000	< 100
O=C(NCC(O)CN1CCc2ccccc2C1)c1ccnc(NC2CCOCC2)c1 (centres unmarked) [Compound 74]	101 to 1000	< 100
COc1ccc(NC2CCOCC2)cc1C(=O)NCC(O)CN1CCc2ccccc2C1 (centres unmarked) [Compound 77]	1000 to 10000	101 to 1000
O=C(NCC(O)CN1CCc2ccccc2C1)c1cc(F)cc(NC2CCOCC2)c1 (centres unmarked) [Compound 78]	101 to 1000	< 100
O=C(NCC(O)CN1CCc2ccccc2C1)c1cccc(NC2CCOCC2)c1F (centres unmarked) [Compound 79]	101 to 1000	< 100
O=C(NC[C@H](O)CN1CCc2ccccc2C1)c1cccc(NC2CCOC2)c1 (some centres unmarked) [Compound 80]	101 to 1000	< 100
O=C(NC[C@@H](O)CN1CCc2ccccc2C1)c1cccc(NC2CCOC2)c1 (some centres unmarked) [Compound 81]	1000 to 10000	101 to 1000
O=C(NC[C@H](O)CN1CCc2ccccc2C1)c1cccc(OC2CCOCC2)c1 [Compound 82]	101 to 1000	< 100
Cc1ccc2cc(C(=O)NCC(O)CN3CCc4ccccc4C3)ccc2n1 (centres unmarked) [Compound 84, N-(3-(3,4-dihydroisoquinolin-2(1H)-yl)-2-hydroxypropyl)-2-methylquinoline-6-carboxamide]	1000 to 10000	< 100
O=C(NCC(O)CN1CCc2ccccc2C1)c1ccc2nccnc2c1 (centres unmarked) [Compound 85]	10000 to 50000	101 to 1000
O=C(NCC(O)CN1CCc2ccccc2C1)c1ccc2c(c1)OCCN2 (centres unmarked) [Compound 88]	> 20000	101 to 1000
O=C1COc2cc(C(=O)NCC(O)CN3CCc4ccccc4C3)ccc2N1 (centres unmarked) [Compound 89]	> 20000	101 to 1000
CCN1CCN(Cc2cccc(C(=O)NCC(O)CN3CCc4ccccc4C3)c2)CC1 (centres unmarked) [Compound 90]	10000 to 50000	101 to 1000
CS(=O)(=O)N1CCN(Cc2cccc(C(=O)NCC(O)CN3CCc4ccccc4C3)c2)CC1 (centres unmarked) [Compound 91]	1000 to 10000	< 100
O=C(NCC(O)CN1CCc2ccccc2C1)c1cccc(CN2CCN(CC(F)(F)F)CC2)c1 (centres unmarked) [Compound 92]	1000 to 10000	< 100
O=C(NCC(O)CN1CCc2ccccc2C1)c1cccc(NC2CCNC2)c1 (centres unmarked) [Compound 93]	> 20000	1000 to 10000
O=C(NCC(O)CN1CCc2ccccc2C1)c1cccc(NC2CCNCC2)c1 (centres unmarked) [Compound 94]	10000 to 50000	101 to 1000
